Experimental data published in article PMC5502112 (Brain research, 2017).
Residue numbers refer to the chain shown, from its start.

Legend:
Assay in all cases: inside-out patch clamp, HEK293
Format in all cases: biochemical
Kir4.1 [1] = biological target: T1, Kir4.1 (Rattus norvegicus, UniProt P49655); settings: read-out: % inhibition at 10 μM
T1 sequence (P49655 1-379): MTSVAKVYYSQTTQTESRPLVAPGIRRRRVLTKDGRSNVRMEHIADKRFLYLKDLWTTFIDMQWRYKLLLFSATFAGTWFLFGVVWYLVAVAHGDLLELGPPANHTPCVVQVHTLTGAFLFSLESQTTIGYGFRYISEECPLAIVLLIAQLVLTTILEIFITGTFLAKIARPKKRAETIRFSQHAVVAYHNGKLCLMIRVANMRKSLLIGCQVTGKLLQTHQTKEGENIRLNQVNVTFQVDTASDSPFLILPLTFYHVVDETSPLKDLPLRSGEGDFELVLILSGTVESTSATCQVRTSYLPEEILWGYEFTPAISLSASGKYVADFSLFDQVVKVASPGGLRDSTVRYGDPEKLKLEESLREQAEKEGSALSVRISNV

Kir4.1 [2] = biological target: T2, Kir4.1 (Rattus norvegicus, UniProt P49655, E158N); settings: read-out: % inhibition at 10 μM
T2 sequence (P49655 1-379 E158N): T1 sequence (P49655 1-379) with E158N

Kir4.1 [3] = biological target: T1, Kir4.1
Kir4.1 [4] = biological target: T3, Kir4.1 (Rattus norvegicus, UniProt P49655, T127A); settings: read-out: % inhibition at 10 μM
T3 sequence (P49655 1-379 T127A): T1 sequence (P49655 1-379) with T127A

Kir4.1 [5] = biological target: T4, Kir4.1 (Rattus norvegicus, UniProt P49655, T128A); settings: read-out: % inhibition at 10 μM
T4 sequence (P49655 1-379 T128A): T1 sequence (P49655 1-379) with T128A

## CCN(CC)CCCC(C)Nc1c2ccc(Cl)cc2nc2ccc(OC)cc12 (centres unmarked) [quinacrine]
Kir4.1 [1]
  inhibition at 10 µM: 88.3 ± 1.5%
Kir4.1 [2]
  inhibition at 10 µM: 79.8 ± 2.2%
Kir4.1 [3]
  IC50: 1800 ± 300 nM
Kir4.1 [4]
  inhibition at 10 µM: 89.7 ± 1.1%
Kir4.1 [5]
  inhibition at 10 µM: 66.1 ± 1.1%
